According to patent US20240316023A1, “BENEDIN, PIPERIDINE, 2-BENZHYDRYL-3-HYDROXY-N-METHYL-, HYDROCHLORIDE AND DERIVATIVES THEREOF FOR USE IN TREATING KLEINE-LEVIN SYNDROME” (priority 2021, published 2024):

Tests used:
[1] = molecular target: T1, NET (h) (antagonist radioligand) (Homo sapiens, UniProt P23975); assay: Radioligand binding panel (Eurofins/CEREP), NET; conditions: % inhibition of control specific binding
T1 construct: CEREP (Eurofins, France), contract panel
Method: (§1) Benedin was tested at 10^−5 M, calculated as a % inhibition of control specific binding of a radioactively labeled ligand specific for each target.
(§2) This binding profile panel was broadly defined with roughly an equal number of selective, central and peripheral therapeutically relevant targets, including native animal tissues, radioligands and specific enzymes involved in cell cycle regulation in accordance with Eurofins Standard Operating Procedure.
(§3) For radioligand binding experiments, the half maximal inhibitory concentration (IC50) and the half maximal effective concentration (EC50) values were determined (via computer software) by nonlinear regression analysis of the competition curves using Hill equation curve fitting. The inhibition constants (Ki) were calculated using the Cheng-Prusoff equation (Ki=IC50/(1+(L/KD)), where L is the concentration of radioligand in the assay, and KD is the affinity of the radioligand for the receptor.^60
(§4) The results are expressed as a % control specific binding ([measured specific binding/control specific binding]×100) and as a % inhibition of control specific binding (100−[(measured specific binding/control specific binding)×100] obtained in the presence of the test compounds. […]

[2] = molecular target: T2, mu (h) (MOP) (agonist radioligand) (Homo sapiens, UniProt P35372); assay: Radioligand binding panel (Eurofins/CEREP), mu opioid; conditions: 10^−5 M; % inhibition of control specific binding; read-out: % Inhibition at 10^−5M Benedin
T2 construct: CEREP (Eurofins, France), contract panel
T2 sequence (P35372 whole entry): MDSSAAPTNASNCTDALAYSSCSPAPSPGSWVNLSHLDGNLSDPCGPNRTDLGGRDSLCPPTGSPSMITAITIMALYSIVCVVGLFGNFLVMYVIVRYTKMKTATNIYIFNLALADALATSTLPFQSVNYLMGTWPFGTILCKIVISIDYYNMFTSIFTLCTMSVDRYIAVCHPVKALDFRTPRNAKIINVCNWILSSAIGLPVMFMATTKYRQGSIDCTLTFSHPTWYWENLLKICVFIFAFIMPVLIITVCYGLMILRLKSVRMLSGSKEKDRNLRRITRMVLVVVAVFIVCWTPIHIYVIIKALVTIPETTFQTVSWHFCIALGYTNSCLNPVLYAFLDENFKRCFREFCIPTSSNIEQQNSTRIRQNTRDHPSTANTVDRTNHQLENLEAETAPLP
Method: as §1, §2, §3, §4

[3] = molecular target: T3, M2 (h) (antagonist radioligand) (Homo sapiens, UniProt P08172); assay: Radioligand binding panel (Eurofins/CEREP), M2; conditions: 10^−5 M; % inhibition of control specific binding; read-out: % Inhibition at 10^−5M Benedin
T3 construct: CEREP (Eurofins, France), contract panel
T3 sequence (P08172 1-466): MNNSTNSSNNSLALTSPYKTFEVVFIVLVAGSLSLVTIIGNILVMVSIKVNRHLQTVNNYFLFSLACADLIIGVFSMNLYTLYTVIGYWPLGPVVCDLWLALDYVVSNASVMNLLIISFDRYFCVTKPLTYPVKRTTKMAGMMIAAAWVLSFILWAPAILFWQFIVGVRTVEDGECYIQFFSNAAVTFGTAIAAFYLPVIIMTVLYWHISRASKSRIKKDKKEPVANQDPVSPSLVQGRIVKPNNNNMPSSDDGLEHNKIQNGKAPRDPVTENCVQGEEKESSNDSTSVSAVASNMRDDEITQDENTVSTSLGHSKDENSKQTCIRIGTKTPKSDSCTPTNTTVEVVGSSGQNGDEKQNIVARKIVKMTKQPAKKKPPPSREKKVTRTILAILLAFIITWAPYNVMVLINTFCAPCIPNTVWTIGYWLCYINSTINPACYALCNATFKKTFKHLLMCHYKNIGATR
Method: as §1, §2, §3, §4

T1 sequence (P23975 whole entry): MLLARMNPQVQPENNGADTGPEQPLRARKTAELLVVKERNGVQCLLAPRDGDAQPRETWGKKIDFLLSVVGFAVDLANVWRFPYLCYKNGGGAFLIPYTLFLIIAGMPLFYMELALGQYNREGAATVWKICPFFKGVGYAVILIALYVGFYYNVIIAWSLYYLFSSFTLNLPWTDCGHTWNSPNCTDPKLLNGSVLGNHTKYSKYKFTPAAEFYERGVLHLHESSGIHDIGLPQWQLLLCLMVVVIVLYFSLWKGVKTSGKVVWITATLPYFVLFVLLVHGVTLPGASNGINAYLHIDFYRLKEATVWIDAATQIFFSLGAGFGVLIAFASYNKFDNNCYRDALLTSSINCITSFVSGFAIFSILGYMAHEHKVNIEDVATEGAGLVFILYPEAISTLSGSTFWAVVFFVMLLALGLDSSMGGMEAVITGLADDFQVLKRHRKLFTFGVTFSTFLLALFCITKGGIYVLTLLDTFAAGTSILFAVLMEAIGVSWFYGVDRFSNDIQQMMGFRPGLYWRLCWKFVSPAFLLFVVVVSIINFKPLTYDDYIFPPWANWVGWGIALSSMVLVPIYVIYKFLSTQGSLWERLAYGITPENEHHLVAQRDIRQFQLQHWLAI

CN1CCCC(O)C1C(c1ccccc1)c1ccccc1 (stereo not shown) [Benedin, 2-benzhydryl-3-hydroxy-N-methyl-piperidine]
inhibition at 10 µM ([1]; 10^−5 M, read-out: % Inhibition at 10^−5M Benedin): 71.9% | % Inhibition at 10^−5M Benedin [1]: appreciable potencies | inhibition at 10 µM [2]: 24.4% | inhibition at 10 µM [3]: 65%
